Results as given in patent US8778889B2, “Antimicrobial decapeptide oral hygiene treatment” (The United States of America as represented by the …, priority 2003, dated 2014).

Assays:
[1] = test system: A. baumannii ATCC #19606; type: cell-based, Acinetobacter baumannii
From the text: (§1) As shown in the table below, many drug-resistant pathogens including multidrug-resistant Acinetobacter baumannii (clinical isolates) were susceptible to the bactericidal activity of the newly developed antimicrobial peptides. […] This is shown by their lower MIC and MBC against a number of antibiotic-resistant bacteria including methicillin-resistant Staphylococcus aureus, vancomycin-resistant Enterococci, and multidrug-resistant Acinetobacter baumannii. Many of these resistant strains are involved in nosocomial infections, which affect the immunocompromised and the elderly individuals with weakened defenses. The tests were done in a broth microdilution assay as described in our earlier publication (Concannon et al., 2003).

[2] = test system: A. baumannii WRAMC #11; type: cell-based, Acinetobacter baumannii
From the text: as §1

[3] = test system: A. baumannii WRAMC #13; type: cell-based, Acinetobacter baumannii
From the text: as §1

[4] = test system: A. baumannii WRAMC #14; type: cell-based, Acinetobacter baumannii
From the text: as §1

[5] = test system: A. baumannii WRAMC #15; type: cell-based, Acinetobacter baumannii
From the text: as §1

[6] = test system: A. baumannii WRAMC #16; type: cell-based, Acinetobacter baumannii
From the text: as §1

[7] = test system: A. baumannii WRAMC #17; type: cell-based, Acinetobacter baumannii
From the text: as §1

[8] = test system: A. baumannii WRAMC #18; type: cell-based, Acinetobacter baumannii
From the text: as §1

[9] = test system: A. baumannii WRAMC #19; type: cell-based, Acinetobacter baumannii
From the text: as §1

[10] = test system: A. baumannii WRAMC #2; type: cell-based, Acinetobacter baumannii
From the text: as §1

[11] = test system: A. baumannii WRAMC #4; type: cell-based, Acinetobacter baumannii
From the text: as §1

[12] = test system: A. baumannii WRAMC #5; type: cell-based, Acinetobacter baumannii
From the text: as §1

[13] = test system: A. baumannii WRAMC #8; type: cell-based, Acinetobacter baumannii
From the text: as §1

[14] = test system: MRSA ATCC #33591; type: cell-based, Staphylococcus aureus
From the text: as §1

[15] = test system: MRSA ATCC #43300; type: cell-based, Staphylococcus aureus
From the text: as §1

[16] = test system: MRSA VVRAMC #10; type: cell-based, Staphylococcus aureus
From the text: as §1

[17] = test system: MRSA VVRAMC #1; type: cell-based, Staphylococcus aureus
From the text: as §1

[18] = test system: MRSA WRAMC #12; type: cell-based, Staphylococcus aureus
From the text: as §1

[19] = test system: MRSA WRAMC #9; type: cell-based, Staphylococcus aureus
From the text: as §1

[20] = test system: VRE ATCC #51299; type: cell-based, Enterococci
From the text: as §1

[21] = test system: VRE VVRAMC #7; type: cell-based, Enterococci
From the text: as §1

[22] = test system: VRE WRAMC #3; type: cell-based, Enterococci
From the text: as §1

[23] = test system: VRE WRAMC #6; type: cell-based, Enterococci
From the text: as §1

[24] = test system: Actinomyces naeslundii; assay: Adherence inhibition of tritiated A. naeslundii to saliva-coated HA disks; type: cell-based; settings: disks pretreated with KSL-W 1 mg/ml; 2 hour incubation at 37° C.
Procedure: In these studies, saliva-coated HA disks pre-treated with salivary proteins, KSL-W (1 mg/ml), or chlorhexidine (1 mg/ml), were used as colonizable surfaces to test the adherence of tritiated A. naeslundii, an early colonizer that is involved in dental plaque formation. In these experiments, labeled A. naeslundii ([…] cells per ml) were incubated for 2 h with HA disks that were pre-treated with different agents.

Substance: H-KKVVFWVKFK-NH2 [KSL-W, NH2-Lys-Lys-Val-Val-Phe-Trp-Val-Lys-Phe-Lys-CONH2]
- MBC [1]: 100 µg/mL
- MBC [2]: 25 µg/mL
- MBC [3]: 50 µg/mL
- MBC [4]: 50 µg/mL
- MIC [4]: 25 µg/mL
- MBC [5]: 50 µg/mL
- MBC [6]: 50 µg/mL
- MBC [7]: 25 µg/mL
- MBC [8]: 25 µg/mL
- MIC [8]: 12.5 µg/mL
- MBC [9]: 100 µg/mL
- MIC [9]: 50 µg/mL
- MBC [10]: 100 µg/mL
- MIC [10]: 25 µg/mL
- MBC [11]: 25 µg/mL
- MBC [12]: 25 µg/mL
- MIC [12]: 12.5 µg/mL
- MBC [13]: 25 µg/mL
- MBC [14]: 200 µg/mL
- MIC [14]: 100 µg/mL
- MBC [15]: 50 µg/mL
- MIC [15]: 25 µg/mL
- MBC [16]: 200 µg/mL
- MBC [17]: 100 µg/mL
- MBC [18]: >200 µg/mL
- MIC [18]: 200 µg/mL
- MBC [19]: >200 µg/mL
- MIC [19]: 200 µg/mL
- MBC [20]: 200 µg/mL
- MIC [20]: 100 µg/mL
- MBC [21]: 25 µg/mL
- MBC [22]: 200 µg/mL
- MIC [22]: 100 µg/mL
- MBC [23]: 100 µg/mL
- MIC [23]: 12.5 µg/mL
- adherence of tritiated A. naeslundii to pretreated HA disks [24]: great reduction in the number of bacteria that attached
